Data on 14 compounds can be found in patent publication US20250059188A1, “ARYLSULPHONAMIDE COMPOUNDS” (Anaxis Pharma Pty Ltd, priority 2021, published 2025).

Each structure is given as a SMILES string. Where only a bound is given, the exact number is not on record here.

The target of one experiment is human MLKL (full length) (Homo sapiens (Human), UniProt Q8NB16). As to the kind of experiment: KINOMEscan binding assay, human MLKL (full length). The note with it: equilibrium dissociation constant. The essentials: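 In this assay, compounds displace DNA- or phage-tagged kinase from an immobilized ligand, and eluted kinase is quantified by qPCR.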
The subject of experiment [1] is Immortalised Mouse Dermal Fibroblasts (MDFs). The experiment can be described thus: Inhibition of TSI induced necroptosis in mouse dermal fibroblasts (CellTitre-Glo). The note with it: Mus musculus, Fibroblast, 3 h, MDF cells, TSI cocktail (TNF, Smac mimetic, IDN-6556), read-out: Inhibition of TSI-induced necroptosis (IC50 cell-based assay) in MDF. The essentials:
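Immortalised MDFs (2200 cells/well, DMEM + 7.4% FBS) pretreated 30 min with compound (36 μM top, 1:3, 10 points, 0.3% DMSO), then 3 h with TNF 100 ng/ml, Smac mimetic 500 nM and IDN-6556 10 μM at 37 °C. Viability by CellTiter-Glo luminescence; IC50 from 4-parameter logistic fit.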

Sequence of human MLKL (full length) (Q8NB16 whole entry): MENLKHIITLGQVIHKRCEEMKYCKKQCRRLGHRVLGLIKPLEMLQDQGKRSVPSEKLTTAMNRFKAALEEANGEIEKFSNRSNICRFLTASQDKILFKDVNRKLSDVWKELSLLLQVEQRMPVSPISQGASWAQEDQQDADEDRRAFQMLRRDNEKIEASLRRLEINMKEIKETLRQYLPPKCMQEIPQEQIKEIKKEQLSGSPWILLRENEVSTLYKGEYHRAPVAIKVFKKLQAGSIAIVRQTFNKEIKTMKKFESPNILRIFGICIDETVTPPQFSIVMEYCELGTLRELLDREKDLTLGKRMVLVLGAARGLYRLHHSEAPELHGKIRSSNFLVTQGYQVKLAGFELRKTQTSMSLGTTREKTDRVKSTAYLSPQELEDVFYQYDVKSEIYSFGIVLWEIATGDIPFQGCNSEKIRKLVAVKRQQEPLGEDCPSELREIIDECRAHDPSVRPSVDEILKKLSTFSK

Regarding `C[C@H](Oc1cc(-c2nn(C)c3c(-c4cnn(C5CCC(C)(C)N(C)C5)c4)cnc(N)c23)ccc1NS(=O)(=O)C(F)F)c1ccc(F)cc1` (stereo partly shown) [Compound 104, N-(4-{4-amino-1-methyl-7-[1-(1,6,6-trimethylpiperidin-3-yl)-1H-pyrazol-4-yl]-1H-pyrazolo[4,3-c]pyridin-3-yl}-2-[(1 S)-1-(4-fluorophenyl)ethoxy]phenyl)-1,1-difluoromethanesulfonamide], the Kd on human MLKL (full length) was under 0.001 µM. In experiment [1], the IC50 is 0.1 to 1 µM.

Regarding `CC(=O)N1CCC(n2cc(-c3cnc(N)c4c(-c5ccc(NS(=O)(=O)C(F)F)c(O[C@@H](C)c6ccc(F)cc6)c5)nn(C)c34)cn2)CC1` [Compound 109, (S)—N-(4-(7-(1-(1-acetylpiperidin-4-yl)-1H-pyrazol-4-yl)-4-amino-1-methyl-1H-pyrazolo[4,3-c]pyridin-3-yl)-2-(1-(4-fluorophenyl)ethoxy)phenyl)-1,1-difluoromethanesulfonamide], the Kd on human MLKL (full length) was under 0.001 µM. The IC50 in experiment [1] lay in the range of 0.1 to 1 µM.

Compound `C[C@H](Oc1cc(-c2nn(C)c3c(-c4cnn(CC(F)(F)F)c4)cnc(N)c23)ccc1NS(=O)(=O)C(F)F)c1ccc(F)cc1` [Compound 116, (S)-N-(4-(4-amino-1-methyl-7-(1-(2,2,2-trifluoroethyl)-1H-pyrazol-4-yl)-1H-pyrazolo[4,3-c]pyridin-3-yl)-2-(1-(4-fluorophenyl)ethoxy)phenyl)-1,1-difluoromethanesulfonamide] had a Kd at human MLKL (full length) of 0.001 to 0.1 µM. In addition, the IC50 in experiment [1] was 1 to 10 µM.

`C[C@H](Oc1cc(-c2nn(C)c3c(-c4cnn(C5CCC(F)(F)C5)c4)cnc(N)c23)ccc1NS(=O)(=O)C(F)F)c1ccc(F)cc1` (stereo partly drawn) [Compound 120, N-(4-{4-amino-7-[1-(3,3-difluorocyclopentyl)-1H-pyrazol-4-yl]-1-methyl-1H-pyrazolo[4,3-c]pyridin-3-yl}-2-[(1S)-1-(4-fluorophenyl)ethoxy]phenyl)-1,1-difluoromethanesulfonamide] registered a Kd at human MLKL (full length) of 0.001 to 0.1 µM. Besides, in experiment [1], the IC50 was 1 to 10 µM.

`C[C@@H](Oc1cc(-c2nn(C)c3c(-c4cnn(C5CCOCC5)c4)cnc(N)c23)ccc1NS(=O)(=O)C(F)F)c1ccc(F)cc1` [Compound 121, (R)-N-(4-(4-amino-1-methyl-7-(1-(tetrahydro-2H-pyran-4-yl)-1H-pyrazol-4-yl)-1H-pyrazolo[4,3-c]pyridin-3-yl)-2-(1-(4-fluorophenyl)ethoxy)phenyl)-1,1-difluoromethanesulfonamide]: the Kd at human MLKL (full length) was under 0.001 µM. The IC50 in experiment [1] lay in the range of 1 to 10 µM.

As for `C[C@H](Oc1cc(-c2nn(C)c3c(-c4cnn(C5CCOCC5)c4)cnc(N)c23)ccc1NS(=O)(=O)C(F)F)c1cccc(Cl)c1` [Compound 122, (S)-N-(4-(4-amino-1-methyl-7-(1-(tetrahydro-2H-pyran-4-yl)-1H-pyrazol-4-yl)-1H-pyrazolo[4,3-c]pyridin-3-yl)-2-(1-(3-chlorophenyl)ethoxy)phenyl)-1,1-difluoromethanesulfonamide], the Kd on human MLKL (full length) is under 0.001 µM. Moreover, in experiment [1], the IC50 was in the range of 1 to 10 µM.

For `C[C@H](Oc1cc(-c2nn(C)c3c(-c4cnn(CCC(F)(F)F)c4)cnc(N)c23)ccc1NS(=O)(=O)C(F)F)c1ccc(F)cc1` [Compound 131, (S)-N-(4-(4-amino-1-methyl-7-(1-(3,3,3-trifluoropropyl)-1H-pyrazol-4-yl)-1H-pyrazolo[4,3-c]pyridin-3-yl)-2-(1-(4-fluorophenyl)ethoxy)phenyl)-1,1-difluoromethanesulfonamide], the dissociation constant (Kd) at human MLKL (full length) lay within 0.001 to 0.1 µM. Further, in experiment [1], the IC50 was in the range of 1 to 10 µM.

For `Cn1nc(-c2ccc(NS(=O)(=O)C(F)F)c(OCc3ccc(Cl)c(F)c3)c2)c2c(N)ncc(-c3cnn(C4CCOCC4)c3)c21` [Compound 132, N-(4-(4-amino-1-methyl-7-(1-(tetrahydro-2H-pyran-4-yl)-1H-pyrazol-4-yl)-1H-pyrazolo[4,3-c]pyridin-3-yl)-2-((4-chloro-3-fluorobenzyl)oxy)phenyl)-1,1-difluoromethanesulfonamide], the Kd at human MLKL (full length) was under 0.001 µM. Also, in experiment [1], the IC50 was in the range of 1 to 10 µM.

For `COCC(Oc1cc(-c2nn(C)c3c(-c4cnn(C5CCN(C)CC5)c4)cnc(N)c23)ccc1NS(=O)(=O)C(F)F)c1ccc(F)cc1` (stereo not shown) [Compound 139, N-(4-(4-amino-1-methyl-7-(1-(1-methylpiperidin-4-yl)-1H-pyrazol-4-yl)-1H-pyrazolo[4,3-c]pyridin-3-yl)-2-(1-(4-fluorophenyl)-2-methoxyethoxy)phenyl)-1,1-difluoromethanesulfonamide], the Kd at human MLKL (full length) lay within 0.001 to 0.1 µM. The IC50 in experiment [1] lay within 1 to 10 µM.

On human MLKL (full length), `CC(n1cc(-c2cnc(N)c3c(-c4ccc(NS(=O)(=O)C(F)F)c(O[C@@H](C)c5ccc(F)cc5)c4)nn(C)c23)cn1)C(F)(F)F` (stereo partly drawn) [Compound 142, N-(4-(4-amino-1-methyl-7-(1-(1,1,1-trifluoropropan-2-yl)-1H-pyrazol-4-yl)-1H-pyrazolo[4,3-c]pyridin-3-yl)-2-((S)-1-(4-fluorophenyl)ethoxy)phenyl)-1,1-difluoromethanesulfonamide] returned a Kd of under 0.001 µM. In experiment [1], the IC50 was 1 to 10 µM.

`C[C@H](Oc1cc(-c2nn(C)c3c(-c4cnn(C5CCN(C)C6(CC6)C5)c4)cnc(N)c23)ccc1NS(=O)(=O)C(F)F)c1ccc(F)cc1` (stereo partly drawn) [Compound 145, N-(4-(4-amino-1-methyl-7-(1-(4-methyl-4-azaspiro[2.5]octan-7-yl)-1H-pyrazol-4-yl)-1H-pyrazolo[4,3-c]pyridin-3-yl)-2-((S)-1-(4-fluorophenyl)ethoxy)phenyl)-1,1-difluoromethanesulfonamide]: on human MLKL (full length), the Kd lay in the range of 0.001 to 0.1 µM. Besides, the half-maximal inhibitory concentration (IC50) in experiment [1] is under 0.1 µM.

Compound `C[C@H](Oc1cc(-c2nn(C)c3c(-c4cnn(C5CCC(F)(F)CC5)c4)cnc(N)c23)ccc1NS(=O)(=O)C(F)F)c1ccc(F)cc1` [Compound 146, (S)-N-(4-(4-amino-7-(1-(4,4-difluorocyclohexyl)-1H-pyrazol-4-yl)-1-methyl-1H-pyrazolo[4,3-c]pyridin-3-yl)-2-(1-(4-fluorophenyl)ethoxy)phenyl)-1,1-difluoromethanesulfonamide] registered a Kd on human MLKL (full length) of 0.001 to 0.1 µM. Further, the IC50 in experiment [1] is 1 to 10 µM.

For `CC1C(n2cc(-c3cnc(N)c4c(-c5ccc(NS(=O)(=O)C(F)F)c(O[C@@H](C)c6ccc(F)cc6)c5)nn(C)c34)cn2)CN1C` (stereo partly drawn) [Compound 147, N-(4-(4-amino-7-(1-(1,2-dimethylazetidin-3-yl)-1H-pyrazol-4-yl)-1-methyl-1H-pyrazolo[4,3-c]pyridin-3-yl)-2-((S)-1-(4-fluorophenyl)ethoxy)phenyl)-1,1-difluoromethanesulfonamide], on human MLKL (full length), the equilibrium dissociation constant (Kd) lay in the range of 0.001 to 0.1 µM. Further, the half-maximal inhibitory concentration (IC50) in experiment [1] was 0.1 to 1 µM.

At human MLKL (full length), `C[C@H](Oc1cc(-c2nn(C)c3c(-c4cnn(C5CCN(C)C(C(F)(F)F)C5)c4)cnc(N)c23)ccc1NS(=O)(=O)C(F)F)c1ccc(F)cc1` (stereo partly drawn) [Compound 148, N-(4-(4-amino-1-methyl-7-(1-(1-methyl-2-(trifluoromethyl)piperidin-4-yl)-1H-pyrazol-4-yl)-1H-pyrazolo[4,3-c]pyridin-3-yl)-2-((S)-1-(4-fluorophenyl)ethoxy)phenyl)-1,1-difluoromethanesulfonamide] returned a Kd of 0.001 to 0.1 µM. In addition, in experiment [1], the IC50 is 0.1 to 1 µM.
